Measured values from patent US20260150874A1, “HUMAN MILK OLIGOSACCHARIDES” (SOCIETE DES PRODUITS NESTLE S.A., priority 2021, published 2026).
“Also recorded” adds a separate entry of the source.

Experiments:
visual network = test: Association between human milk HMOs and brain functional network connection strength (rsfMRI), visual network; type: in vivo, typically developing infants (human); conditions: A-tetra+ group; infants 0-20 months; human milk HMO level; quantile regression of 25th, 50th, 75th percentiles of CS; across all quantiles
Description: (§1) In this study, we leveraged the UNC/UMN Baby Connectome Project (BCP) published in Neuroimage 2019: Vol 185: 891-905, aiming to longitudinally characterize early brain development, where typically developing children from 0-5 years of age were enrolled, longitudinal resting functional MR imaging (rsfMRI) was administered at each visit. The BCP study was further supplemented by collecting breast milk samples from the mothers whose children were breast-fed at the time of study visit, to allow the determination of potential associations between HMOs and early brain functional development using rsfMRI.
(§2) 153 rsfMRI scans from 91 typically developing infants (0-20 months old) were obtained. Human milk (HM) samples were obtained from the mothers of the participants at each imaging visit and analyzed for HMOs. Brain functional network connection strengths (CS), which have been implicated to reflect brain functional maturation during early brain development, were obtained for the visual, default mode (DMN), sensorimotor, and auditory networks. Age effects for CS and HMOs were removed. Multivariate quantile regression of 25th, 50th, and 75th percentiles of CS with mixed effect was used to examine associations between HMOs and CS for all infants, and stratified by infants who received HM with detectable and undetectable A-tetra (A-tetra+and A-tetra−). […]

auditory network = test: Association between human milk HMOs and brain functional network connection strength (rsfMRI), auditory network; type: in vivo, typically developing infants (human); conditions: A-tetra+ group; infants 0-20 months; human milk HMO level; quantile regression of 25th, 50th, 75th percentiles of CS; across all quantiles
Description: as §1, §2

Q: `CC(=O)N[C@H]1[C@H]([C@H](O)[C@H](O)CO)O[C@@](OC[C@H]2O[C@@H](O[C@H]3[C@H](O)[C@@H](O)[C@H](O)O[C@@H]3CO)[C@H](O)[C@@H](O)[C@H]2O)(C(=O)O)C[C@@H]1O` [6′-SL, 6′-sialyllactose] was tested. Which “association between 6′-SL and visual function (vision resting functional networks, connection strength)” value (visual network) did it give?
A: The value was “positive associations; also recorded: significant positive association”.

Q: What about the “association between 6′-SL and auditory function (auditory resting functional networks, connection strength)” value (auditory network) of the same compound?
A: The value was “positive associations; also recorded: significant positive association”.
